Experimental data from patent US7264969B1, “Carrier system for specific artery wall gene delivery” (University of Utah Research Foundation, priority 2000, dated 2007).
Where no end group is shown, it is not given here.

Assays:
[1] = tested on: bovine aorta endothelial cells; assay: Transfection assay (luciferase gene expression); assay type: cell-based
Experimental: (§1) Gene expression. (Transfection assay) Primary bovine aorta endothelial cells and smooth muscle cells were prepared, cultured, characterized, and identified as described in L. Yu et al., supra. Bovine aorta endothelial cells (5×10^5/well) and smooth muscle cells (2×10^5/well) were seeded in 24-well plates with 1 ml Dulbecco's modified Eagle medium (DMEM, Hyclone Laboratories, Logan, Utah) containing 10% fetal bovine serum (FBS, Hyclone Laboratories) and incubated for 24 hours to 70-80% confluency. The AWBP-PEG-g-PLL/pCMV-Luc complexes were freshly prepared in PBS for the transfection with fixed amount of plasmid DNA (2 μg/well) and various amounts of AWBP-PEG-g-PLL. After incubation of complexes for 30 minutes at room temperature, 100 μl of complex solution was added to the cells and then incubated for 3 hours at 37° C. in 5% CO2 atmosphere. After replacement of media, the cells were incubated for 40 hours under the same conditions. The cells were washed three times with PBS buffer and made ready for the reporter gene expression assay.
(§2) (Gene expression assay) Transgene expression was evaluated by luciferase activity of cell lysates from transfected bovine aorta endothelial cells and smooth muscle cells. Measurement of luciferase activity was performed according to the manufacturer's instruction (Luciferase Assay System, Promega, Madison, Wis.). Briefly, the transfected cells were lysed with 1× lysis buffer (1% Triton X-100), 100 mM KPO4, 2 mM dithiothreitol, 10% glycerol, and 2 mM EDTA, pH 7.8) for 15 minutes at room temperature. To measure the luciferase activity, 20 μl aliquot of cell lysate was mixed with 50 μl of luciferase assay reagent at room temperature and inserted in the luminometer. Light emission was measured in triplicate over 10 s and expressed as relative light units (RLUs). RLUs were normalized from the protein content of each sample, which was determined by BCA protein assay.

[2] = tested on: bovine aorta smooth muscle cells; assay: Transfection assay (luciferase gene expression); assay type: cell-based
Experimental: as §1, §2

DNase I = assay: DNase protection assay; conditions: 37° C.; charge ratio 2/1 (+/−); 10 times excess of DNase I; FIG. 3B
Experimental: AWBP-PEG-g-PLL/pDNA complexes were prepared at the charge ratios of 2/1 (+/−) and incubated in the presence of 10 times excess of DNase I. At 0, 5, 10, 15, 20, 60, and 120 minutes after incubation, 50 μl of the sample was transferred into another tube and mixed with 100 μl of stop solution (400 mM NaCl and 100 mM EDTA) using mild agitation with a vortexer. The sample was then mixed with 12 μl of 10% (w/v) sodium dodecyl sulfate (SDS) and incubated at 65° C. overnight. DNA was extracted with the mixture of Tris-EDTA saturated phenol:chloroform:isoamyl alcohol (25:24:1, v/v). The extracted DNA was precipitated with 700 μl of absolute ethanol at 12,000 rpm for 30 minutes and washed with 70% ethanol. The DNA precipitate was air-dried and then dissolved in 10 μl TE buffer. The plasmid integrity was assessed by electrophoresis in a 1% agarose gel.

[3] = tested on: bovine aorta endothelial cells; assay: Transfection inhibition assay with free AWBP; assay type: cell-based; conditions: free AWBP 31.25 μM to 500 μM
Experimental: (§3) (Transfectioninhibition assay). Bovine aorta endothelial cells (5×10^5/well) and smooth muscle cells (2×10^5/well) were seeded in 24-well plates 1 day prior to transfection with 70 to 80% confluence. The AWBP-PEG-g-PLL/pCMV-Luc complexes were freshly prepared in PBS buffer for the transfection with a fixed amount of plasmid DNA (2 μg/well) and AWBP-PEG-g-PLL (4 μg/well). After addition of various amounts of free artery wall binding peptide (range from 31.3 μM to 1.0 mM) for 20 minutes at 4° C., 100 μl AWBP-PEG-g-PLL/pCMV-Luc solution was added to the cells. All the other conditions were the same as described above for the transfection assay.
as §2, with “To measure the luciferase activity, 20 μl aliquot of cell lysate was mixed with 50 μl of luciferase assay reagent at room temperature and inserted in the luminometer.” left out

[4] = tested on: bovine aorta smooth muscle cells; assay: Transfection inhibition assay with free AWBP; assay type: cell-based; conditions: free AWBP 31.25 μM to 500 μM
Experimental: as §3
as §2, with “To measure the luciferase activity, 20 μl aliquot of cell lysate was mixed with 50 μl of luciferase assay reagent at room temperature and inserted in the luminometer.” left out

Substance	luciferase activity of cell lysate ([1]; ratio carrier to plasmid DNA from 1.5:1 to 2:1, FIG. 6A)	luciferase activity of cell lysate ([1]; ratio carrier to plasmid DNA from 2:1 to 5:1, FIG. 6A)	luciferase activity of cell lysate ([2]; ratio carrier to plasmid DNA from 1.5:1 to 2:1, FIG. 6B)	luciferase activity of cell lysate ([2]; ratio carrier to plasmid DNA from 2:1 to 5:1, FIG. 6B)	time for which pDNA is protected from digestion with DNase (DNase I)	effect of free AWBP on gene transfer by AWBP-PEG-g-PLL/pDNA complexes [3]	effect of free AWBP on gene transfer by AWBP-PEG-g-PLL/pDNA complexes [4]
AWBP-PEG-g-PLL: artery wall binding peptide (SEQ ID NO:2) conjugated to poly(ethylene glycol)-grafted-poly(L-lysine), about 4 mol AWBP per mole (CGRALVDTLKFVTQAEGAK; also: conjugated to PEG-grafted poly(L-lysine), about 4 mol peptide per mole, site not given here; listed as Homo sapiens)	significantly increased	remained constant	significantly increased	remained constant	at least 2 hours	–	–
AWBP: synthetic peptide based on arterial binding domain of apo B-100 (residues 1000-1016) with cysteine added to amino-terminus (CGRALVDTLKFVTQAEGAK; listed as Homo sapiens)	–	–	–	–	–	significantly inhibit	significantly inhibit
